Measurements as given in ChEMBL document CHEMBL3774317, “Design and synthesis of novel tamoxifen analogues that avoid CYP2D6 metabolism” (Eur J Med Chem, 2016).

Assays:
Type in all cases: functional
[1] = Cytotoxicity against human IGROV1 cells assessed as cell growth at 10^-4 M after 48 hrs by SRB assay; details: IGROV-1, 48 h, read-out: Activity
M14 [2] = assay: Cytotoxicity against human M14 cells assessed as cell growth at 10^-8 M after 48 hrs by SRB assay; details: M14, 48 h, read-out: Activity
[3] = Cytotoxicity against human RXF393 cells assessed as cell growth at 10^-8 M after 48 hrs by SRB assay; details: RXF 393, 48 h, read-out: Activity
[4] = Cytotoxicity against human HL-60(TB) cells assessed as cell growth at 10^-8 M after 48 hrs by SRB assay; details: HL-60, 48 h, read-out: Activity
SK-MEL-2 = assay: Cytotoxicity against human SK-MEL-2 cells assessed as cell growth at 10^-4 M after 48 hrs by SRB assay; details: SK-MEL-2, 48 h, read-out: Activity
NCI-H522 [5] = assay: Cytotoxicity against human NCI-H522 cells assessed as cell growth at 10^-7 M after 48 hrs by SRB assay; details: NCI-H522, 48 h, read-out: Activity
K562 [6] = assay: Cytotoxicity against human K562 cells assessed as cell growth at 10^-8 M after 48 hrs by SRB assay; details: K562, 48 h, read-out: Activity
[7] = Cytotoxicity against human UACC257 cells assessed as cell growth at 10^-6 M after 48 hrs by SRB assay; details: UACC-257, 48 h, read-out: Activity
[8] = Cytotoxicity against human HOP92 cells assessed as cell growth at 10^-5 M after 48 hrs by SRB assay; details: HOP-92, 48 h, read-out: Activity
MDA-MB-435 = assay: Cytotoxicity against human MDA-MB-435 cells assessed as cell growth at 10^-4 M after 48 hrs by SRB assay; details: MDA-MB-435, 48 h, read-out: Activity
[9] = Cytotoxicity against human SF539 cells assessed as cell growth at 10^-6 M after 48 hrs by SRB assay; details: SF-539, 48 h, read-out: Activity
[10] = Cytotoxicity against human COLO205 cells assessed as cell growth at 10^-8 M after 48 hrs by SRB assay; details: COLO 205, 48 h, read-out: Activity
[11] = Cytotoxicity against human SW620 cells assessed as cell growth at 10^-6 M after 48 hrs by SRB assay; details: SW-620, 48 h, read-out: Activity
[12] = Cytotoxicity against human SF268 cells assessed as cell growth at 10^-4 M after 48 hrs by SRB assay; details: SF-268, 48 h, read-out: Activity
[13] = Cytotoxicity against human SF268 cells assessed as cell growth at 10^-8 M after 48 hrs by SRB assay; details: SF-268, 48 h, read-out: Activity
[14] = Cytotoxicity against human HCT116 cells assessed as cell growth at 10^-6 M after 48 hrs by SRB assay; details: HCT-116, 48 h, read-out: Activity
[15] = Cytotoxicity against human OVCAR8 cells assessed as cell growth at 10^-8 M after 48 hrs by SRB assay; details: OVCAR-8, 48 h, read-out: Activity
U-251 = assay: Cytotoxicity against human U251 cells assessed as cell growth at 10^-7 M after 48 hrs by SRB assay; details: U-251, 48 h, read-out: Activity
[16] = Cytotoxicity against human BT549 cells assessed as cell growth at 10^-4 M after 48 hrs by SRB assay; details: BT-549, 48 h, read-out: Activity
[17] = Cytotoxicity against human SNB75 cells assessed as cell growth at 10^-8 M after 48 hrs by SRB assay; details: SNB-75, 48 h, read-out: Activity
[18] = Cytotoxicity against human SF268 cells assessed as cell growth at 10^-7 M after 48 hrs by SRB assay; details: SF-268, 48 h, read-out: Activity
ACHN = assay: Cytotoxicity against human ACHN cells assessed as cell growth at 10^-5 M after 48 hrs by SRB assay; details: read-out: Activity
K562 [19] = assay: Cytotoxicity against human K562 cells assessed as cell growth at 10^-5 M after 48 hrs by SRB assay; details: K562, 48 h, read-out: Activity
[20] = Cytotoxicity against human SNB19 cells assessed as cell growth at 10^-6 M after 48 hrs by SRB assay; details: SNB-19, 48 h, read-out: Activity
[21] = Cytotoxicity against human Caki1 cells assessed as cell growth at 10^-8 M after 48 hrs by SRB assay; details: CAKI-1, 48 h, read-out: Activity
[22] = Cytotoxicity against human IGROV1 cells assessed as cell growth at 10^-5 M after 48 hrs by SRB assay; details: IGROV-1, 48 h, read-out: Activity
[23] = Cytotoxicity against human RPMI8226 cells assessed as cell growth at 50 nM after 48 hrs by SRB assay; details: RPMI-8226, 48 h, read-out: Activity
[24] = Cytotoxicity against human OVCAR5 cells assessed as cell growth at 50 uM after 48 hrs by SRB assay; details: OVCAR-5, 48 h, read-out: Activity
MCF7 = assay: Cytotoxicity against human MCF7 cells assessed as cell growth at 5 uM after 48 hrs by SRB assay; details: MCF7, 48 h, read-out: Activity
[25] = Cytotoxicity against human UACC257 cells assessed as cell growth at 50 nM after 48 hrs by SRB assay; details: UACC-257, 48 h, read-out: Activity
NCI-H226 = assay: Cytotoxicity against human NCI-H226 cells assessed as cell growth at 5 nM after 48 hrs by SRB assay; details: NCI-H226, 48 h, read-out: Activity
M14 [26] = assay: Cytotoxicity against human M14 cells assessed as cell growth at 5 nM after 48 hrs by SRB assay; details: M14, 48 h, read-out: Activity
[27] = Cytotoxicity against human MOLT4 cells assessed as cell growth at 5 uM after 48 hrs by SRB assay; details: MOLT-4, 48 h, read-out: Activity
SR = assay: Cytotoxicity against human SR cells assessed as cell growth at 50 uM after 48 hrs by SRB assay; details: read-out: Activity
[28] = Cytotoxicity against human SNB19 cells assessed as cell growth at 5 nM after 48 hrs by SRB assay; details: SNB-19, 48 h, read-out: Activity
[29] = Cytotoxicity against human HCC2998 cells assessed as cell growth at 5 nM after 48 hrs by SRB assay; details: HCC 2998, 48 h, read-out: Activity
NCI-H522 [30] = assay: Cytotoxicity against human NCI-H522 cells assessed as cell growth at 50 nM after 48 hrs by SRB assay; details: NCI-H522, 48 h, read-out: Activity
[31] = Cytotoxicity against human OVCAR8 cells assessed as cell growth at 0.5 uM after 48 hrs by SRB assay; details: OVCAR-8, 48 h, read-out: Activity
CCRF-CEM = assay: Cytotoxicity against human CCRF-CEM cells assessed as cell growth at 5 uM after 48 hrs by SRB assay; details: read-out: Activity
[32] = Cytotoxicity against human PC3 cells assessed as cell growth at 50 nM after 48 hrs by SRB assay; details: PC-3, 48 h, read-out: Activity
[33] = Cytotoxicity against human OVCAR8 cells assessed as cell growth at 5 nM after 48 hrs by SRB assay; details: OVCAR-8, 48 h, read-out: Activity

C/C(=C(/c1ccc(O)cc1)c1ccc(OCCN2CCCC2)cc1)c1ccccc1 gave a growth at 100 µM [1] of -54%, a growth at 0.01 µM (M14 [2]) of 92% and a growth at 0.01 µM [3] of 96%. For the same compound, the growth at 0.01 µM [4] was 97%, the growth at 100 µM (SK-MEL-2) was -89% and the growth at 0.1 µM (NCI-H522 [5]) was 94%. For the same compound, the growth at 0.01 µM (K562 [6]) was 99%, the growth at 1 µM [7] was 104% and the growth at 10 µM [8] was -13%. For the same compound, the growth at 100 µM (MDA-MB-435) was -100%, the growth at 1 µM [9] was 91% and the growth at 0.01 µM [10] was 93%. For the same compound, the growth at 1 µM [11] was 101%, the growth at 100 µM [12] was -80% and the growth at 0.01 µM [13] was 98%. It also gave a growth at 1 µM [14] of 93%, a growth at 0.01 µM [15] of 104% and a growth at 0.1 µM (U-251) of 100%. It also gave a growth at 100 µM [16] of -100%, a growth at 0.01 µM [17] of 72% and a growth at 0.1 µM [18] of 94%. The growth at 10 µM (ACHN) was 25%, the growth at 10 µM (K562 [19]) was -38% and the growth at 1 µM [20] was 104%. The growth at 0.01 µM [21] was 87% and the growth at 10 µM [22] was 41%.
Work on CCCCCCCCCC(=O)Oc1ccc(/C(=C(/C)c2ccccc2)c2ccc(OCCN3CCCC3)cc2)cc1 yielded a growth at 0.05 µM [23] of 100%, a growth at 50 µM [24] of -84% and a growth at 5 µM (MCF7) of 36%. It also gave a growth at 0.05 µM [25] of 102%, a growth at 0.005 µM (NCI-H226) of 93% and a growth at 0.005 µM (M14 [26]) of 98%. The growth at 5 µM [27] was 82%, the growth at 50 µM (SR) was -66% and the growth at 0.005 µM [28] was 98%. It also gave a growth at 0.005 µM [29] of 98%, a growth at 0.05 µM (NCI-H522 [30]) of 98% and a growth at 0.5 µM [31] of 91%. The growth at 5 µM (CCRF-CEM) was 88%, the growth at 0.05 µM [32] was 97% and the growth at 0.005 µM [33] was 102%.
